Experimental data taken from patent publication US8450527B2, “Amine derivative compounds for treating ophthalmic diseases and disorders” (Acucela Inc., priority 2007, dated 2013).
Where a name gives a salt, the structure may show the parent alone.

Tested on: retinoid nuclear receptors (RAR and RxR)
Test: Retinoid nuclear receptor activity
Settings: not given

effects on retinoid nuclear receptors (RAR and RxR)	SMILES
activated	C/C(=C\c1ccc(C(=O)O)cc1)c1ccc2c(c1)C(C)(C)CCC2(C)C [TTNPB, E-4-[2-(5,6,7,8-tetrahydro-5,5,8,8-tetramethyl-2-naphthylenyl)-1-propenyl]benzoic acid, reference compound]
activated	CC1=C(/C=C/C(C)=C/C=C/C(C)=C/C(=O)O)C(C)(C)CCC1 [at-RA, All-trans-retinoic acid, reference compound]

Tested on: not given
Test: not given
Settings: not given

melting point [°C]	SMILES
106 to 108	Cc1cccc(C)c1CCc1cccc(CCCN)c1 (as salt: hydrochloride) [Example 1, 3-(3-(2,6-dimethylphenethyl)phenyl)propan-1-amine]

Biological target: T1, visual cycle isomerase (Bos taurus, UniProt Q28175)
T1 construct: Bovine Retinal Pigment Epithelium (RPE) microsome membranes were the source of a visual cycle isomerase; from tissue; host or cells: bovine retinal pigment epithelium microsome membranes; CRALBP made in E. coli
T1 sequence (Q28175 2-533 limits assumed): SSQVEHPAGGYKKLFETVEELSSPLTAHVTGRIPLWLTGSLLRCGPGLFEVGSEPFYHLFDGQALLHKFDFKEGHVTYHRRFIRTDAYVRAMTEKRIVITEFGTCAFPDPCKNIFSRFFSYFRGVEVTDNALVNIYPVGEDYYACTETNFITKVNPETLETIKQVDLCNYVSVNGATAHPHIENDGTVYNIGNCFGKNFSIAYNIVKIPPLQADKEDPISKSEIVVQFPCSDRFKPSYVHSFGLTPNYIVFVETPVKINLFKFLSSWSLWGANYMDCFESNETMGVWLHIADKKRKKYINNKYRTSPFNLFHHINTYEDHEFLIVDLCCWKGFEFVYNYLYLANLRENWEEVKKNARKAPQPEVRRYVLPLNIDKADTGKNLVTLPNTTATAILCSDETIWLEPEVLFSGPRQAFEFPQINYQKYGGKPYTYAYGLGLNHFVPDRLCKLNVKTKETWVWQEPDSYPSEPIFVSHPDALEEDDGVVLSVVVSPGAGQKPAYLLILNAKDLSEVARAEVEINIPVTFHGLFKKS
Test: In vitro isomerase inhibition assay, bovine RPE microsome membranes
Format: biochemical
Settings: inhibition of 11-cis retinol formation; values given as ranges
Description: The capability of amine derivative compounds to inhibit the activity of a visual cycle isomerase was determined
Isomerase inhibition reactions were performed essentially as described (Stecher et al., J. Biol. Chem. 274:8577-85 (1999); see also Golczak et al., Proc. Natl. Acad. Sci. USA 102:8162-67 (2005)). Bovine Retinal Pigment Epithelium (RPE) microsome membranes were the source of a visual cycle isomerase.
Bovine RPE microsome membrane extracts were prepared according to methods described (Golczak et al., Proc. Natl. Acad. Sci. USA 102:8162-67 (2005)) and stored at −80° C. Crude RPE microsome extracts were thawed in a 37° C. water bath, and then immediately placed on ice. 50 ml crude RPE microsomes were placed into a 50 ml Teflon-glass homogenizer (Fisher Scientific, catalog no. 0841416M) on ice, powered by a hand-held DeWalt drill, and homogenized ten times upand down on ice under maximum speed. This process was repeated until the crude RPE microsome solution was homogenized. The homogenate was then subjected to centrifugation (50.2 Ti rotor (Beckman, Fullerton, Calif.), 13,000 RPM; 15360 Rcf) for 15 minutes at 4° C. The supernatant was collected and subjected to centrifugation at 42,000 RPM (160,000 Rcf; 50.2 Ti rotor) for 1 hour at 4° C. The supernatant was removed, and the pellets were suspended in 12 ml (final volume) cold 10 mM MOPS buffer, pH 7.0. The resuspended RPE membranes in 5 ml aliquots were homogenized in a glass-to-glass homogenizer (Fisher Scientific, catalog no.K885500-0021) to high homogeneity. Protein concentration was quantified using the BCA protein assay according to the manufacturer's protocol (Pierce, Rockford, Ill.). The homogenized RPE preparations were stored at −80° C.
Recombinant human apo cellular retinaldehyde-binding protein (CRALBP) was cloned and expressed according to standard methods in the molecular biology art (see Crabb et al., Protein Science 7:746-57 (1998); Crabb et al., J. Biol. Chem. 263:18688-92 (1988)). Briefly, total RNA was prepared from confluent ARPE^19 cells (American Type Culture Collection, Manassas, Va.), cDNA was synthesized using an oligo(dT)12-18 primer, and then DNA encoding CRALBP was amplified by two sequential polymerase chain reactions (see Crabb et al., J. Biol. Chem. 263:18688-92 (1988); Intres, et al., J. Biol. Chem. 269:25411-18 (1994); GenBank Accession No. L34219.1). The PCR product was sub-cloned into pTrcHis2-TOPO TA vector according to the manufacturer's protocol (Invitrogen Inc., Carlsbad, Calif.; catalog no. K4400-01), and then the sequence was confirmed according to standard nucleotide sequencing techniques. Recombinant 6×His-tagged human CRALBP was expressed in One Shot TOP 10 chemically competent E. coli cells (Invitrogen), and the recombinant polypeptide was isolated from E. coli cell lysates by nickel affinity chromatography using nickel (Ni) Sepharose XK16-20 columns for HPLC (Amersham Bioscience, Pittsburgh, Pa.; catalog no.17-5268-O2). The purified 6×His-tagged human CRALBP was dialyzed against 10 mM bis-tris-Propane (BTP) and analyzed by SDS-PAGE. The molecular weight of the recombinant human CRALBP was approximately 39 kDal.
Amine derivative compounds and control compounds were reconstituted in ethanol to 0.1 M. Ten-fold serial dilutions (10^−2, 10^−3, 10^−4, 10^−5, 10^−6 M) in ethanol of each compound were prepared for analysis in the isomerase assay.
The isomerase assay was performed in 10 mM bis-tris-propane (BTP) buffer, pH 7.5, 0.5% BSA (diluted in BTP buffer), 1 mM sodium pyrophosphate, 20 μM all-trans retinol (in ethanol), and 6 μM apo-CRALBP. The test compounds (2 μl) (final 1/15 dilution of serial dilution stocks) were added to the above reaction mixture to which RPE microsomes were added. The same volume of ethanol was added to the control reaction (absence of test compound). Bovine RPE microsomes (9 μl) (see above) were then added, and the mixtures transferred to 37° C. to initiate the reaction (total volume=150 μl). […]

SMILES	IC50 [µM]
COCCCc1cccc(CCCN)c1 [Example 5, 3-(3-(3-Methoxypropyl)phenyl)propan-1-amine]	1 to 10
NCCCc1cccc(CCCO)c1 [Example 6, 3-(3-(3-aminopropyl)phenyl)propan-1-ol]	10 to 100
CCCC(O)CCc1cccc(CCCN)c1 (stereo not drawn) [Example 8, 1-(3-(3-aminopropyl)phenyl)hexan-3-ol]	1 to 10
NCCCc1cccc(CCc2ccc3ccccc3c2)c1 [Example 21, 3-(3-(2-(naphthalen-2-yl)ethyl)phenyl)propan-1-amine]	10 to 100
NCCCc1cccc(CCc2ccccc2)c1 [Example 22, 3-(3-phenethylphenyl)propan-1-amine]	1 to 10
NCCCc1cccc(CCCCO)c1 [Example 23, 4-(3-(3-aminopropyl)phenyl)butan-1-ol]	10 to 100
Cc1ccccc1CCc1cccc(CCCN)c1 [Example 31, 3-(3-(2-methylphenethyl)phenyl)propan-1-amine]	1 to 10
NCCCc1cccc(CCc2cccc(-c3ccccc3)c2)c1 [Example 32, 3-(3-(2-(Biphenyl-3-yl)ethyl)phenyl)propan-1-amine]	10 to 100
CCCCC(CCCC)c1cccc(CCCN)c1 [Example 34]	1 to 10
NCCOc1cccc(CCc2cccnc2)c1 [Example 36, 2-(3-(2-(pyridin-3-yl)ethyl)phenoxy)ethanamine]	1 to 10
NCCOc1cccc(CCc2ccccn2)c1 [Example 37, 2-(3-(2-(pyridin-2-yl)ethyl)phenoxy)ethanamine]	1 to 10
Cc1cccc(C)c1NC(=O)c1cccc(CCCN)c1 [Example 166, 3-(3-aminopropyl)-N-(2,6-dimethylphenyl)benzamide]	100 to 1000

Further lines, results first:

IC50 [µM]	SMILES
≤ 1	CCC(O)(CC)CCc1cccc(CCCN)c1 [Example 2, 1-(3-(3-aminopropyl)phenyl)-3-ethylpentan-3-ol]
1 to 10	CC(C)(O)CCc1cccc(CCCN)c1 [Example 4, 4-(3-(3-Aminopropyl)phenyl)-2-methylbutan-2-ol]
≤ 1	NCCOc1cccc(CCCCCCO)c1 [Example 13, 6-(3-(2-aminoethoxy)phenyl)hexan-1-ol]
≤ 1	NCCOc1cccc(CCCC2CCCC2)c1 [Example 14, 2-(3-(3-cyclopentylpropyl)phenoxy)ethanamine]
≤ 1	NCCC(O)c1cccc(CCCc2ccccc2)c1 (stereo not drawn) [Example 18, 3-amino-1-(3-(3-phenylpropyl)phenyl)propan-1-ol]
≤ 1	NCCCc1cccc(CCC2CCCC2)c1 [Example 24, 3-(3-(2-cyclopentylethyl)phenyl)propan-1-amine]
≤ 1	NCCCc1cccc(CCC2CCCCC2)c1 [Example 25, 3-(3-(2-cyclohexylethyl)phenyl)propan-1-amine]
≤ 1	NCCCc1cccc(CCCc2ccccc2)c1 [Example 26, 3-(3-(3-phenylpropyl)phenyl)propan-1-amine]
≤ 1	CCCCCCc1cccc(CCCN)c1 [Example 28, 3-(3-hexylphenyl)propan-1-amine]
≤ 1	NCCCc1cccc(CCCCCCO)c1 [Example 30, 6-(3-(3-aminopropyl)phenyl)hexan-1-ol]
≤ 1	COCCCCCCc1cccc(CCCN)c1 [Example 33, 3-(3-(6-methoxyhexyl)phenyl)propan-1-amine]
≤ 1	NCCOc1cccc(CCc2cccs2)c1 [Example 38, 2-(3-(2-(thiophen-2-yl)ethyl)phenoxy)ethanamine]
